Test results taken from US11618749B2, “Compounds and compositions for treating conditions associated with STING activity” (IFM Due, Inc., priority 2018, dated 2023).

Each molecule was assayed against T1, hSTING (Homo sapiens, UniProt Q86WV6, G230A/H232R/R293Q/R71H) (assay: STING reporter assay (luciferase reporter) in THP1-Dual KO-IFNAR2 cells activated with 2′3′cGAMP). Conditions: 15 μM 2′3′cGAMP, 24 h, luciferase reporter activity.
T1 construct: host or cells: THP1-Dual KO-IFNAR2 cells
Assay type: cell-based
Method: STING pathway activation by the compounds described herein is measured using THP1-Dual™ cells (KO-IFNAR2).
THP1-Dual™ KO-IFNAR2 Cells (obtained from invivogen) are maintained in RPMI, 10% FCS, 5 ml P/S, 2 mM L-glut, 10 mM Hepes, and 1 mM sodium pyruvate. Compounds are spotted in empty 384 well tissue culture plates (Greiner 781182) by Echo for a final concentration of […]. Cells are plated into the TC plates at 40 μL per well, 2×10E6 cells/mL. For activation with STING ligand, 2′3′cGAMP (MW 718.38, obtained from Invivogen), is prepared in Optimem media.
The following solutions are prepared for each 1×384 plate: • Solution A: 2 mL Optimem with one of the following stimuli: • 60 uL of 10 mM 2′3′cGAMP→150 μM stock • Solution B: 2 mL Optimem with 60 μL Lipofectamine 2000→Incubate 5 min at RT
2 mL of solution A and 2 ml Solution B is mixed and incubated for 20 min at room temperature (RT). 20 uL of transfection solution (A+B) is added on top of the plated cells, with a final 2′3′cGAMP concentration of 15 μM. The plates are then centrifuged immediately at 340 g for 1 minute, after which they are incubated at 37° C., 5% CO2, >98% humidity for 24 h. Luciferase reporter activity is then measured. EC50 values were calculated by using standard methods known in the art.
Luciferase Reporter Assay:
10 μL of supernatant from the assay is transferred to white 384-plate with flat bottom and squared wells. one pouch of QUANTI-Luc™ Plus is dissolved in 25 mL of water. 100 μL of QLC Stabilizer per 25 mL of QUANTI-Luc™ Plus solution was added. 50 μL of QUANTI-Luc™ Plus/QLC solution per well is then added. Luminescence is measured on a Platereader (e.g., Spectramax I3X (Molecular Devices GF3637001)).
Luciferase reporter activity is then measured. EC50 values are calculated by using standard methods known in the art.

T1 sequence (Q86WV6 whole entry R71H/G230A/H232R/R293Q): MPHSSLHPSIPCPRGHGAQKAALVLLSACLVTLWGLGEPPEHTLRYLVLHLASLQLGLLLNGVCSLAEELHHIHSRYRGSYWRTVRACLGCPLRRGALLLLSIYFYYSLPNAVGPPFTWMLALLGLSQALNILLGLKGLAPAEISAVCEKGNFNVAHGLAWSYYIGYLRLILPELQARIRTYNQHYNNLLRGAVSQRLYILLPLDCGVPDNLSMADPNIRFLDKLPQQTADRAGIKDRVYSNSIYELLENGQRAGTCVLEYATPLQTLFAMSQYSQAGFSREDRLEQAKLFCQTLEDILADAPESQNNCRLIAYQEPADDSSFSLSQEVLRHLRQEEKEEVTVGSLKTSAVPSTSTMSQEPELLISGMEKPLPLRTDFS

| SMILES | EC50 |
| --- | --- |
| CN1CCN(c2ccc(-c3cnc4[nH]cc(NC(=O)Nc5ccc(C(F)(F)F)cc5)c4c3)cc2)CC1 [Compound 197] | 1 to 5 µM |
| CCc1ccc(CNC(=O)Nc2c[nH]c3ncccc23)cc1 [Compound 171] | 5 to 100 µM |
| O=C(Nc1ccc(C(F)(F)F)cc1)Nc1c[nH]c2nccc(-c3cccnc3)c12 [Compound 189] | 5 to 100 µM |
| CC(C)(O)c1cccc(-c2ccnc3[nH]cc(NC(=O)Nc4ccc(C(F)(F)F)cc4)c23)c1 [Compound 205] | 5 to 100 µM |
| O=S(=O)(Nc1ccc(C(F)(F)F)cc1)Nc1c[nH]c2ncc(F)cc12 [Compound 337] | 5 to 100 µM |
| O=C(Nc1cccc(C2CCCCC2)n1)Nc1c[nH]c2ncc(F)cc12 [Compound 260] | 1 to 5 µM |
| CCCCC1CCC(NC(=O)Nc2c[nH]c3ccncc23)CC1 (stereo not shown) [Compound 317] | 0.2 to 1 µM |

Other lines, results leading:

| EC50 | SMILES |
| --- | --- |
| 1 to 5 µM | CCCCc1ccc(N(C)C(=O)Nc2c[nH]c3ncc(F)cc23)cc1 [Compound 246] |
| 1 to 5 µM | O=C(Nc1ccc(C2CCCCC2)nc1)Nc1c[nH]c2cccnc12 [Compound 331] |
| 1 to 5 µM | O=C(Nc1cccc(C(F)(F)F)c1)Nc1c[nH]c2ccncc12 [Compound 148] |
